Assays:
CYP2C9 = CYP2C9 (Homo sapiens, UniProt P11712)
C57BL/6 mice = assay: SmartCage locomotor activity monitoring; format: in vivo, mouse; conditions: 0.3, 1.0, 3.0 and 10 mg/kg, IP, 24 h
Wistar rats = assay: Five Choice Serial Reaction Time Task, vSD version, repeated administration; format: in vivo, Wistar rat; parameters: Latency (Correct) / Latency (Incorrect): unit not given here; conditions: for Latency (Correct) / Latency (Incorrect) / Magazine Head Entries / Omissions / Reward Latency / Trials Completed: vSD, mean ± SEM
Description: The behavioral tasks utilized were three versions of the rat Five Choice Serial Reaction Time Task (5C-SRTT), the standard version of the task (STD) with a fixed stimulus duration and a fixed intertrial interval, the variable stimulus duration (vSD) and the variable intertrial interval (vITI) version. The principal readout parameters in each task were the % Hit and the % correct choices (measures of sustained attention) and three measures of inhibitory response control (premature, perseverative, and timeout responses), although a number of additional outcome measures were obtained (see under Methods and Results below).
Twenty-four adult (approx. 10 months old) male Wistar rats (Envigo, Inc, Indianapolis, IN) were used in the study. […] Subjects were double housed in polycarbonate cages (45×30×18 cm) with corncob bedding in a vivarium of constant temperature (21-23° C.) and humidity (40-50%). […] All behavioral testing was performed during the light portion (9 a.m.-5 p.m.) of the light/dark cycle (Monday thru Friday). Animals were cared for in accordance with the Guide for the Care and Use of Laboratory Animals (U.S. National Institutes of Health) and the experimental protocols were approved by the Institutional Animal Care and Use Committee at Augusta University (Protocol #2010-0044).
The 5C-SRTT procedure (reviewed, Robbins, 2002. Psychopharmacology (Berl); 163(3-4):362-80) was conducted as we have described previously (Terry et al., 2014, Neurotoxicology and Teratology 44:18-29, 2014; Callahan et al., 2020, Neuropharmacology. August 15; 173:107994). […] Animals were trained in eight automated 5C-SRTT operant chambers (Med Associates, St. Albans, VT, USA), controlled by MedPC software (Med Associates). Briefly, each operant chamber was equipped with 5 apertures containing a photocell beam to detect nose pokes and a lamp (2.8 W) that could be illuminated randomly at varying durations. Food pellets (45 mg chow pellet, BioServ, Frenchtown, NJ, USA) were delivered automatically to a magazine, located on the opposite wall to the nose pokes, that was also equipped with a light that turned on to indicate that a pellet had been dispensed. The house-light remained on for the entire session unless an error or omission occurred. Training sessions began with the delivery of a food reward and retrieval triggered the first trial. […] Sessions ended when 40 minutes had lapsed or 100 trials had been completed.
For this study, subjects were re-trained 5 days per week until they re-established a stable performance criteria with a fixed (1.0 sec) stimulus duration and a fixed ITI (5 sec) of 70-75% accuracy, <20% omissions and completion of all 100 trials for 5 consecutive days. Upon meeting these performance criteria animals were trained for one additional week and two groups of subjects (N=12) were assembled and balanced according to their performance accuracy, specifically the % Hit evaluation, which takes into account correct responses as well as all incorrect responses including the number of omissions. […] The vSD version of the task increases the attentional load while the vITI increases impulsivity-like behavior. The following outcome measures and behavioral domains were assessed: % Hit and % correct=sustained attention; omissions=attention/motivation; premature responses=impulsivity; perseverative responses=compulsivity; timeout responses=cognitive inflexibility; magazine head entries=appetitive motivation and compulsivity-like behavior; response latencies=information processing speed and/or motivation. For the STD version of the task, the stimulus duration (SD) was fixed at 1.0 sec and the ITI was fixed at 5 sec. In the vSD version of the task the following stimulus durations were presented in a pseudorandom manner: 0.3, 0.6, and 0.9 sec. In the vITI version, 2.5, 5.0, and 10.0 sec ITIs were employed in a pseudorandom manner. […]

[1] = Group 1, 0.1 mg/kg, Drug Exp period
[2] = Group 1, 0.1 mg/kg, Post-Drug Exp (vehicle washout) period
[3] = Group 2, 0.3 mg/kg, Drug Exp period
[4] = Group 2, 0.3 mg/kg, Post-Drug Exp (vehicle washout) period

CYP2C9, sequence (P11712 whole entry): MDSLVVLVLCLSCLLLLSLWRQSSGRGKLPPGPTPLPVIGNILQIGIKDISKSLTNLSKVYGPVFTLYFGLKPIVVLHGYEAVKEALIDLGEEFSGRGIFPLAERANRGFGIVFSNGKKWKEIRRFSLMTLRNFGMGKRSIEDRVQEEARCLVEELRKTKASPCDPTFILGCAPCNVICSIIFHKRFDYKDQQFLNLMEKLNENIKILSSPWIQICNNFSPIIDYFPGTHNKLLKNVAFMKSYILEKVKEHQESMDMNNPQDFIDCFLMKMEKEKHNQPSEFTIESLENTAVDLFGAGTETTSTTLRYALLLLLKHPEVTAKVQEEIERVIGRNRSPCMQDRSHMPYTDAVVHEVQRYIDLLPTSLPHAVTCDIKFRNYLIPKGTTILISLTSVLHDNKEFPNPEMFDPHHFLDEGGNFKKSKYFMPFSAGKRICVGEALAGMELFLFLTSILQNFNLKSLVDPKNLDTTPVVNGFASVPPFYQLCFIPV

SMILES: Clc1ccc(C2(OCC3OCCO3)c3ccccc3C3=NCCN32)cc1 (centres unmarked) [Compound I-19]
- Inhibition at Highest Test Article Concentration (CYP2C9; 2C9, Diclofenac, at 50 μM): 53.3 at 50 μM %
- IC50 (CYP2C9; pooled human liver microsomes, 30 min): did not inhibit
- home cage activity (activity, rearing, velocity, distance) (C57BL/6 mice): no significant effect on the diurnal or nocturnal activity measures
- % Hit (Wistar rats; repeated 0.1 and 0.3 mg/kg IP): modest decrease in accuracy that was limited to the 0.6 sec stimulus duration
- premature responses (Wistar rats; repeated 0.1 and 0.3 mg/kg IP): reduced the number of premature responses compared to post-drug conditions
- Latency (Correct) (Wistar rats; [1]): 0.99
- Latency (Incorrect) (Wistar rats; [1]): 2.17
- Magazine Head Entries (Wistar rats; [1]): 168.21 ± 10.60
- Omissions (Wistar rats; [1]): 15.79
- Reward Latency (Wistar rats; [1]): 2.44
- Trials Completed (Wistar rats; [1]): 94.17 ± 2.75
- Latency (Correct) (Wistar rats; [2]): 0.86 ± 0.03
- Latency (Incorrect) (Wistar rats; [2]): 1.90 ± 0.09
- Magazine Head Entries (Wistar rats; [2]): 189.79 ± 14.47
- Omissions (Wistar rats; [2]): 8.12 ± 1.63
- Reward Latency (Wistar rats; [2]): 2.13
- Trials Completed (Wistar rats; [2]): 97.79 ± 2.21
- Latency (Correct) (Wistar rats; [3]): 0.91
- Latency (Incorrect) (Wistar rats; [3]): 2.21
- Magazine Head Entries (Wistar rats; [3]): 208.46 ± 28.88
- Omissions (Wistar rats; [3]): 14.08
- Reward Latency (Wistar rats; [3]): 2.99
- Trials Completed (Wistar rats; [3]): 98.29 ± 0.84
- Latency (Correct) (Wistar rats; [4]): 0.76
- Latency (Incorrect) (Wistar rats; [4]): 1.65 ± 0.08
- Magazine Head Entries (Wistar rats; [4]): 245.17 ± 33.79
- Omissions (Wistar rats; [4]): 5.79 ± 1.35
- Reward Latency (Wistar rats; [4]): 2.11
- Trials Completed (Wistar rats; [4]): 100.00
